Activity calls are given as the source filed them. No rule for the calls is given here.
Tested on: CCRIS mutagenicity, Ames/micronucleus/aberration tests
Assay: CCRIS mutagenicity studies

In the case of `CS(C)=O`, the mutagenic call (Test System: AMES SALMONELLA TYPHIMURIUM, Strain/Indicator: TA1535, Metabolic Activation: RAT, LIVER, S-9, AROCLOR 1254 (10 OR 30%), Method: PREINCUBATION) is reported as “inactive; negative”, the mutagenic call (Test System: AMES SALMONELLA TYPHIMURIUM, Strain/Indicator: TA1535, Metabolic Activation: RAT, LIVER, S-9, PHENOBARBITAL AND 5,6-BENZOFLAVONE, Method: PREINCUBATION (20 MIN)) is reported as “inactive; negative” and the mutagenic call (Test System: AMES SALMONELLA TYPHIMURIUM, Strain/Indicator: TA1537, Metabolic Activation: HAMSTER, LIVER, S-9, AROCLOR 1254 (30%), Method: PREINCUBATION) is reported as “inactive; negative”. The mutagenic call (Test System: AMES SALMONELLA TYPHIMURIUM, Strain/Indicator: TA1537, Metabolic Activation: NONE, Method: FLUCTUATION (MICROTITER)) was “inactive; negative”, the mutagenic call (Test System: AMES SALMONELLA TYPHIMURIUM, Strain/Indicator: TA1537, Metabolic Activation: NONE, Method: PREINCUBATION) was “inactive; negative” and the mutagenic call (Test System: AMES SALMONELLA TYPHIMURIUM, Strain/Indicator: TA1537, Metabolic Activation: NONE, Method: PREINCUBATION (20 MIN)) was “active; positive”. For the same molecule, the mutagenic call (Test System: AMES SALMONELLA TYPHIMURIUM, Strain/Indicator: TA1537, Metabolic Activation: NONE, Method: PREINCUBATION (20 OR 60 MIN)) was “active; positive”, the mutagenic call (Test System: AMES SALMONELLA TYPHIMURIUM, Strain/Indicator: TA1537, Metabolic Activation: NONE, Method: STANDARD PLATE) was “inactive; negative” and the mutagenic call (Test System: AMES SALMONELLA TYPHIMURIUM, Strain/Indicator: TA1537, Metabolic Activation: RAT LIVER S-9, AROCLOR 1254, Method: FLUCTUATION (MICROTITER)) was “inactive; negative”. For the same molecule, the mutagenic call (Test System: AMES SALMONELLA TYPHIMURIUM, Strain/Indicator: TA1537, Metabolic Activation: RAT, LIVER, S-9, AROCLOR 1254 (30%), Method: PREINCUBATION) was “inactive; negative”, the mutagenic call (Test System: AMES SALMONELLA TYPHIMURIUM, Strain/Indicator: TA1537, Metabolic Activation: RAT, LIVER, S-9, PHENOBARBITAL AND 5,6-BENZOFLAVONE, Method: PREINCUBATION (20 MIN)) was “active; positive” and the mutagenic call (Test System: AMES SALMONELLA TYPHIMURIUM, Strain/Indicator: TA1538, Metabolic Activation: NONE, Method: PREINCUBATION (20 MIN)) was “inactive; negative”. For the same molecule, the mutagenic call (Test System: AMES SALMONELLA TYPHIMURIUM, Strain/Indicator: TA1538, Metabolic Activation: RAT, LIVER, S-9, PHENOBARBITAL AND 5,6-BENZOFLAVONE, Method: PREINCUBATION (20 MIN)) was “inactive; negative”, the mutagenic call (Test System: AMES SALMONELLA TYPHIMURIUM, Strain/Indicator: TA2637, Metabolic Activation: NONE, Method: PREINCUBATION (20 MIN)) was “active; positive” and the mutagenic call (Test System: AMES SALMONELLA TYPHIMURIUM, Strain/Indicator: TA2637, Metabolic Activation: RAT, LIVER, S-9, PHENOBARBITAL AND 5,6-BENZOFLAVONE, Method: PREINCUBATION (20 MIN)) was “active; positive”. The mutagenic call (Test System: AMES SALMONELLA TYPHIMURIUM, Strain/Indicator: TA7001, Metabolic Activation: NONE, Method: FLUCTUATION (MICROTITER)) was “inactive; negative”, the mutagenic call (Test System: AMES SALMONELLA TYPHIMURIUM, Strain/Indicator: TA7001, Metabolic Activation: RAT LIVER S-9, AROCLOR 1254, Method: FLUCTUATION (MICROTITER)) was “inactive; negative” and the mutagenic call (Test System: AMES SALMONELLA TYPHIMURIUM, Strain/Indicator: TA7002, Metabolic Activation: NONE, Method: FLUCTUATION (MICROTITER)) was “inactive; negative”. For the same molecule, the mutagenic call (Test System: AMES SALMONELLA TYPHIMURIUM, Strain/Indicator: TA7002, Metabolic Activation: RAT LIVER S-9, AROCLOR 1254, Method: FLUCTUATION (MICROTITER)) was “inactive; negative”, the mutagenic call (Test System: AMES SALMONELLA TYPHIMURIUM, Strain/Indicator: TA7003, Metabolic Activation: NONE, Method: FLUCTUATION (MICROTITER)) was “inactive; negative” and the mutagenic call (Test System: AMES SALMONELLA TYPHIMURIUM, Strain/Indicator: TA7003, Metabolic Activation: RAT LIVER S-9, AROCLOR 1254, Method: FLUCTUATION (MICROTITER)) was “inactive; negative”. For the same molecule, the mutagenic call (Test System: AMES SALMONELLA TYPHIMURIUM, Strain/Indicator: TA7004, Metabolic Activation: NONE, Method: FLUCTUATION (MICROTITER)) was “inactive; negative”, the mutagenic call (Test System: AMES SALMONELLA TYPHIMURIUM, Strain/Indicator: TA7004, Metabolic Activation: RAT LIVER S-9, AROCLOR 1254, Method: FLUCTUATION (MICROTITER)) was “inactive; negative” and the mutagenic call (Test System: AMES SALMONELLA TYPHIMURIUM, Strain/Indicator: TA7005, Metabolic Activation: NONE, Method: FLUCTUATION (MICROTITER)) was “inactive; negative”. The mutagenic call (Test System: AMES SALMONELLA TYPHIMURIUM, Strain/Indicator: TA7005, Metabolic Activation: RAT LIVER S-9, AROCLOR 1254, Method: FLUCTUATION (MICROTITER)) was “inactive; negative”, the mutagenic call (Test System: AMES SALMONELLA TYPHIMURIUM, Strain/Indicator: TA7006, Metabolic Activation: NONE, Method: FLUCTUATION (MICROTITER)) was “inactive; negative” and the mutagenic call (Test System: AMES SALMONELLA TYPHIMURIUM, Strain/Indicator: TA7006, Metabolic Activation: RAT LIVER S-9, AROCLOR 1254, Method: FLUCTUATION (MICROTITER)) was “inactive; negative”. The mutagenic call (Test System: E. COLI, Strain/Indicator: WP2, Metabolic Activation: NONE, Method: PREINCUBATION (20 OR 60 MIN)) was “inactive; negative”, the mutagenic call (Test System: E. COLI, Strain/Indicator: WP2, Metabolic Activation: NONE, Method: STANDARD PLATE) was “inactive; negative” and the mutagenic call (Test System: E. COLI, Strain/Indicator: WP2 UVRA, Metabolic Activation: NONE, Method: PREINCUBATION (20 MIN)) was “active; positive”. For the same molecule, the mutagenic call (Test System: E. COLI, Strain/Indicator: WP2 UVRA, Metabolic Activation: NONE, Method: PREINCUBATION (60 MIN)) was “inactive; negative”, the mutagenic call (Test System: E. COLI, Strain/Indicator: WP2 UVRA, Metabolic Activation: NONE, Method: STANDARD PLATE) was “active; positive” and the mutagenic call (Test System: MOUSE LYMPHOMA, Strain/Indicator: L5178Y (TK+/TK-), Metabolic Activation: NONE, Method: SUSPENSION/PLATE) was “active; positive”.
